Data set [1] in a line: Brain microdialysis PK 30 mg/kg PO mouse. It counts as in vivo. An excerpt: Kpuu is the ratio of unbound drug in brain to unbound drug in plasma and may be indicative of potential for treating peripheral and/or CNS indications.
A short description of a further data set: PK mouse 10 mg/kg PO. It is filed as in vivo. The text has this:
Oral F: Oral bioavailability.

The next data set deals with TOM20 ubiquitylation. Kind of data set: TOM20-ubiquitylation assay. It counts as cell-based, human. To be noted: Antimycin A/oligomycin mitophagy trigger. An excerpt:
Human cell lines can be challenged with mitochondrial depolarizing agents (ionophores (eg. CCCP, valinomycin), mitochondrial complex inhibitors (oligomycin, antimycin A)) to induce ubiquitylation of TOM20, which is then further promoted in the presence of USP30 inhibitors. TOM20 ubiquitylation is subsequently assessed through western blotting of the cell lysates, with TOM20 ubiquitylation adduct detection possible due to an 8 kDa molecule weight increase for each molecule of ubiquitin added, resulting in laddering of a TOM20 immunoreactive band. TOM20-ubiquitylation levels can be quantified using chemiluminescence densitometry of laddered immunoreactive bands.

Data set [2] concerns USP2, USP6, USP10, USP16, USP21, USP22, USP25, USP28. Kind of data set: DUB selectivity panel IC50. It is filed as biochemical.
A further data set concerns the target T1, UCHL1 (Homo sapiens, UniProt P09936).
T1 sequence (P09936 1-223): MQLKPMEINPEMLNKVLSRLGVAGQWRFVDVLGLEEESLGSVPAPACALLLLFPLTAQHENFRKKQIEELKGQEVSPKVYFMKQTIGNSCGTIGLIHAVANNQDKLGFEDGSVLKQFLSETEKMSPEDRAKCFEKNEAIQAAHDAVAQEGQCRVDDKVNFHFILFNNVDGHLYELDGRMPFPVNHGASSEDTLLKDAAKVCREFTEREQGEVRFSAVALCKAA
Kind of data set: UCHL1 DUB IC50. It is filed as biochemical.

Another data set deals with Cathepsin V (Homo sapiens, UniProt O60911). Kind of data set: Cathepsin V IC50. It counts as biochemical.
Cathepsin V, sequence (O60911 114-334, species assumed): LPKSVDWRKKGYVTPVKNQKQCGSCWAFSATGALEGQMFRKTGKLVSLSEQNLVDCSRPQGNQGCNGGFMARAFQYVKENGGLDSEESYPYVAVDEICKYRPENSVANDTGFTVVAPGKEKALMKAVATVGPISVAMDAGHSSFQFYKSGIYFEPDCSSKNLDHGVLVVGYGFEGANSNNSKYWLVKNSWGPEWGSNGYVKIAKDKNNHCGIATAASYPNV
The nature of another data set: Turbidimetric solubility. It counts as physicochemical. To be noted: aqueous buffer, kinetic from dmso stock. The text has this:
Turbidimetric solubility: Test compound solution prepared in DMSO diluted into aqueous buffer.
Turbidimetry is used as the end-point by measuring absorbance at 620 nm.

The target of another data set is Cathepsin S (Homo sapiens, UniProt P25774). Kind of data set: Cathepsin S IC50. It is filed as biochemical.
Cathepsin S, sequence (P25774 115-331, species assumed): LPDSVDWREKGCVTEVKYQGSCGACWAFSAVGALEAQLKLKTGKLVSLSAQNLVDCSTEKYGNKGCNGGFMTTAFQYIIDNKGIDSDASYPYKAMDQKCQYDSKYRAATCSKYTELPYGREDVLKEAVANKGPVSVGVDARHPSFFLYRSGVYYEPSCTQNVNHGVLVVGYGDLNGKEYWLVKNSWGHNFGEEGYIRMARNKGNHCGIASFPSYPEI
Data set [3] has as its system HCT116 human colorectal carcinoma cells. Kind of data set: In vitro cytotoxicity (Cell Tox), alamarBlue. It is filed as cell-based. To be noted: HCT-116, 96-hour continual compound exposure. The text has this:
There is also a need for compounds that have a favourable safety profile, which may be measured by a variety of standard in vitro and in vivo methods. A cell toxicity counter-screen may be used to assay the anti-proliferative/cytotoxic effect in a particular cell line (e.g. HCT116) by fluorometric detection of rezasurin (alamarBlue™) to resofurin in response to mitochondrial activity.
Measured in HCT116 human colorectal carcinoma cells using alamarBlue™ as the assay endpoint. Compound cytotoxicity was measured over a period of 96-hour continual compound exposure.
For orientation: Alamar Blue is a resazurin reagent that responds to reducing activity.

The test system of a further data set is UUO injured kidneys. Kind of data set: Unilateral ureteral obstructive kidney disease model (UUO). To be noted: 10 days. It is filed as in vivo, C57BL/6 mice. An excerpt:
UUO causes renal injury characterised by tubular cell injury, interstitial inflammation and fibrosis. It serves as a model of irreversible post-renal acute kidney injury (AKI). Experimental UUO has illustrated the molecular mechanisms of apoptosis, inflammation and fibrosis, all of which are key processes in renal injury, regardless of the primary insult. Consequently, the UUO model provides investigators information beyond obstruction (Chevalier et al, 2009, Kidney Int 75(11): 1145-1152). Example 1 was assessed in the UUO model to determine the ability of the compound to attenuate progressive tubulointerstitial fibrosis and chronic kidney disease (CKD). On day 1 of the study, adult C57BL/6 mice were dosed by oral gavage according to one of the following dosing regimens; Vehicle or 15 mg/kg Example 1 (p.o.) BID. Two hours post dosing on day 1 study mice underwent surgery to ligate the left ureter at two points. Successful UUO surgery was later confirmed by observation of dilation of renal pelvis due to hydronephrosis. The animals were dosed according to their prescribed regimen for 10 days at which point kidneys were harvested, or histopathology assessment and for protein/RNA assessment. Picrosirius Red staining was performed to assess the extent of collagen deposition and IHC was employed to assess relative α-Smooth Muscle Actin (α-SMA) expression.

Consider `COC[C@@H]1C[C@@H](NC(=O)c2ncc(-c3cccc(C(F)(F)F)c3)o2)CN1C#N` [Example 1, N-((3R,5S)-1-Cyano-5-(methoxymethyl)-pyrrolidin-3-yl)-5-(3-(trifluoromethyl)phenyl)oxazole-2-carboxamide], for which, in [1] (Brain microdialysis PK 30 mg/kg PO - mouse), the Kp uu amounted to 1.2. Besides, the “pre-frontal cortex Cmax, u/cell TOM20-Ub” value in data set [1] (Brain microdialysis PK 30 mg/kg PO mouse) is recorded as 23-fold. In “PK mouse 10 mg/kg PO” (10 mg/kg PO dose - mouse), the “Unbound plasma Cmax/TOM20-Ub cell potency” value is given as 41-fold. In addition, in the data set “PK mouse 10 mg/kg PO” (plasma, po, mouse 10 mg/kg, read-out: Oral F (%)), the bioavailability worked out at 82%. For the same compound, the “TOM20-Ub 1.5-fold gain EC1.5x” value in the data set on TOM20 ubiquitylation is 0.020 µM. Besides, the “DUB selectivity preference for USP30 v 8 DUBs” value in [2] is listed as greater than 1777. The IC50 (usually the concentration needed to halve the response being measured) was 16 to 97.9 µM in data set [2] (range over the eight DUBs, read-out: DUB IC50 (μM) USP2, USP6, USP10, USP16, USP21, USP22, USP25, USP28); greater than 300 µM against UCHL1; 105 µM against Cathepsin V; 138 µM against Cathepsin S. Further, the solubility (in general, the dissolved amount per volume that the medium holds) in the data set “Turbidimetric solubility” was greater than 100 µM. Moreover, the EC50 (commonly the concentration giving half of the maximal effect) in [3] is greater than 30 µM. Besides, the “α-SMA levels in UUO injured kidneys (IHC)” value in the data set on UUO injured kidneys (15 mg/kg oral BID, vs vehicle treated controls) is “statistical reduction in α-SMA levels”. The “collagen deposition (picrosirius red staining) in ligated kidneys” value in the data set on UUO injured kidneys (15 mg/kg p.o. BID, vs vehicle) is on record as “statistically reduced collagen deposition”.

The values above are taken from US20230219939A1, “N-(1-CYANO-PYRROLIDIN-3-YL)-5-(3-(TRIFLUOROMETHYL)PHENYL)OXAZOLE-2-CARBOXAMIDE DERIVATIVES AND THE CORRESPONDING OXADIAZOLE DERIVATIVES AS USP30 INHIBITORS FOR THE TREATMENT OF MITOCHONDRIAL DYSFUNCTION” (MISSION THERAPEUTICS LIMITED, priority 2020, published 2023).
